# Reference: publication PMC9024361, “Pharmacokinetics, Tissue Distribution, Metabolism and Excretion of a Novel COX-2 Inhibitor, Vitacoxib, in Rats” (Frontiers in Veterinary Science, 2022)
# “Also recorded” adds a separate entry of the source. Like-named read-outs stand apart in the source and are kept apart here.
# Experiments:
# [1] = Metabolite identification in plasma, bile, urine and feces (UPLC Q-TOF MS); assay type: in vivo, Wistar rats; details: rats; for Source (matrices in which the metabolite was detected): single oral 18 mg/kg vitacoxib, Q-TOF MS; for Share of the metabolite in urinary and fecal excretion: urine and feces, not quantified
# Method: Six male rats were placed in their own metabolic cages and orally administered a single dose of 18 mg/kg dose of vitacoxib (tablets crushed and dissolved in 0.5% CMC-Na, 6 mg/ml). Bile, fecal, and urine samples were collected from each animal in metabolic cages at 0~8, 8~23, 23~32, 32~48, 48~58, 58~72, 72~82, 82~96, and 96~128 h after administration. The total weight of urine and feces was recorded after collection. Feces samples were diluted with 3 volumes (v/w) of triple-distilled water and homogenized, and the homogenate was stored at −20°C until further analysis.
# Chromatographic separation was performed using an ACQUITY UPLC^TM system (Waters Corporation, Milford, MA, USA). A Waters ACQUITY UPLC HSS T3 column (1.7 μm, 2.1 mm × 100 mm) was used for reversed-phase UPLC and the column temperature was maintained at 40°C. The flow rate of the mobile phase was 0.5 ml/min and the injection volume was 5 μl. Mobile phase A was 0.1% formic acid in water and mobile phase B was 0.1% formic acid in methanol. The column was eluted using a linear gradient (0 → 1 min, phase A 90%; 1 → 10 min, phase A 90% → 5%; 10 → 13.5 min, phase A 5% → 5%; and 13.5 → 15 min, phase A 5% → 90%).
# MS analysis was performed using a Xevo G2-S Q-TOF mass spectrometer. The eluent was not shunted but injected directly into the mass analysis system in the positive-ion mode. The source temperature was set at 120°C. The flow rate of the desolvation gas was 800 L/h at a temperature of 500°C. The capillary voltage was set at 3 kV with 35 V as the cone voltage. Methods to analyze different tissues and samples were developed and validated in our lab. Data were analyzed using Metabolynx^TM software (version 4.1), which could automatically identify metabolites by comparing treatment samples with the respective controls.
# COX-2 [2] = system: COX-2; set-up: method as in doi:10.11669/cpj.2013.20.011; details: rats, preclinical trials; cited from earlier work
# SD rats = system: SD rats; set-up: method as in PMID 28238853, PMID 29601910; details: repeated dietary administration, cited from earlier work
# COX-2 [3] = system: COX-2; set-up: method as in doi:10.11669/cpj.2013.20.011; details: dogs, preclinical trials; cited from earlier work
# [4] = Urinary and fecal excretion of unchanged drug; assay type: in vivo, Wistar rats; details: rats
# Method: Six male rats were placed in separate metabolic cages and administered a single oral dose of 18 mg/kg of vitacoxib (tablets were crushed and dissolved in 0.5% CMC-Na, 6 mg/ml). Urine and fecal samples were collected from each animal in metabolic cages at different time points at 2, 4, 6, 8, 10, 14, 24, 36, 48, 60, 72, 84, 96, 108, 120, 132, 144, 156, and 168 h after drug administration.
# (§1) Eight male rats with bile-duct cannulation were administered 18 mg/kg of vitacoxib (tablets crushed and dissolved in 0.5% CMC-Na, 6 mg/ml). Rats were housed in metabolism cages and bile samples were collected at 2, 4, 6, 8, 10, 14, 24, 36, 48, 60, and 72 h after drug administration. All samples were stored at −20°C until further analysis. […] Vitacoxib in urine, fecal, and bile samples was determined via validation UPLC-MS/MS using the procedure described for blood ([18]).
# rats = test: Observation of adverse effects after a single oral dose; assay type: in vivo, Wistar rats; details: single oral dose 18 mg/kg BW
# Method: (§2) Five male rats were administered a single dose of vitacoxib (18 mg/kg) obtained by crushing and dissolving vitacoxib tablets in 0.5% CMC-Na (6 mg/ml). Blood samples (0.3 ml) were collected via a cannula directly into heparinized tubes before drug administration and 5, 15, 30 min, and 1, 2, 3, 4, 6, 8, 10, 12, 24, 36, and 48 h after drug administration. The samples were centrifuged at 2,280 × g for 10 min as soon as possible and stored at −20°C until further analysis (within 21 days).
# [5] = system: Institute of Cancer Research (ICR) mice; details: mouse, in vivo; cited from earlier work
# [6] = Bile excretion of unchanged drug in bile-duct cannulated rats; assay type: in vivo, Wistar rats; details: single oral 18 mg/kg, 0~72 h
# Method: as §1
# [7] = Plasma pharmacokinetics after a single oral dose; assay type: in vivo; details: male, Wistar, rat, rats, single p.o. 18 mg/kg b.w., n = 5, plasma
# Method: as §2
# Vitacoxib in plasma samples was analyzed using an established and validated UPLC-MS/MS (Waters Acquity UPLC and Water Quattro Premier, Waters Co., USA) method using a procedure previously described by our group ([18]). The lower limit of quantification was 0.5 ng/ml and the calibration range of the method was 0.5–1,000 ng/ml. Noncompartmental analysis was performed to determine the pharmacokinetic parameters, as appropriate, using WinNonlin^TM (version 6.4, Certara, Princeton NJ, USA) computational software.
# [8] = set-up: method as in PMID 30076623; details: horses, 0.1 mg/kg bw; cited from earlier work
# Sprague Dawley (SD) rats = details: rat, in vivo; cited from earlier work
# [9] = dog, in vivo, 2 mg/kg; cited from earlier work
# rabbits = system: rabbits; set-up: method as in PMID 28959651; details: cited from earlier work
# [10] = Tissue distribution after a single oral dose; assay type: in vivo, Wistar rats; details: rats
# Method: Eighteen rats were administered a single oral dose (18 mg/kg BW) of vitacoxib (tablets crushed and dissolved in 0.5% CMC-Na, 6 mg/ml). Six rats were euthanized at each time point of 0.25, 6, and 24 h after dose administration. The brain, liver, heart, spleen, lungs, bladder, kidneys, gracilis muscle, gastrointestinal tract, large intestinal contents, small intestine, bone marrow, testes, epididymis, thymus gland, fat, and pancreas were collected and weighed. Each sample was diluted with 3 volumes (v/w) of triple-distilled water and homogenized, and the homogenate was stored at −20°C until further analysis. Vitacoxib in tissue samples was analyzed using UPLC-MS/MS by following a previously described procedure.
# rats and mice = system: rats and mice; set-up: method as in PMID 30128300; details: cited from earlier work
# guinea pigs = system: guinea pigs; set-up: method as in PMID 28959651; details: cited from earlier work
structure (smiles),measurement,setting,value
"CS(=O)(=O)c1ccc(-n2cnc(Cl)c2-c2ccc(C(=O)O)cc2)nc1 [M2, 4-(4-chloro-1-(5-(methylsulfonyl)pyridin-2-yl)-1H-imidazol-5-yl) benzoic acid]",Source (matrices in which the metabolite was detected),[1],"Bile, feces, and urine"
same,Share of the metabolite in urinary and fecal excretion,[1]; listed as carboxylic acid derivative,major metabolite
same,Share of the metabolite in urinary and fecal excretion,[1]; listed as carboxylic acid metabolite,primary metabolite
"Cc1ccc(-c2c(Cl)ncn2-c2ccc(S(C)(=O)=O)cn2)cc1 [vitacoxib, 2-(4-chloro-5-p-tolyl-1H-imidazol-1-yl)-5-(methylsulfonyl) pyridine]",COX-2 inhibition (specificity),COX-2 [2],specifically inhibits COX-2
same,No-observed-adverse-effect-level (90 days),SD rats; 90 days,20 mg/kg
same,No-observed-adverse-effect-level (180 days),SD rats; 180 days,6 mg/kg BW/day
same,COX-2 inhibition (specificity),COX-2 [3],specifically inhibits COX-2
same,Cumulative excretion in feces in unaltered form,"[4]; single oral 18 mg/kg, 0~168 h",4.7334% ± 1.6645%
same,Cumulative excretion in urine in unaltered form,"[4]; single oral 18 mg/kg, 0~168 h",0.0135% ± 0.0053%
same,Dose recovered in the urine or feces as the parent drug,[4]; single oral dose,< 5%
same,Adverse effects,rats,No obvious or serious adverse effects; also recorded: no adverse effects
same,Oral LD50,[5],"> 5,000 mg/kg body weight (BW)"
same,Cumulative excretion in bile in unaltered form,[6],0.0261% ± 0.00627%
same,Tmax,"[7]; plasma, 18 mg/kg",~5 h
same,AUC(0-inf),"[7]; 0 to infinity, read-out: AUCINF_obs",4930 ± 588 ng·h/mL
same,AUC(0-t),[7]; 0 to last point,4900 ± 604 ng·h/mL
same,k el,"[7]; noncompartmental, read-out: λz (elimination rate constant) (converted)",4.44e-05 s⁻¹
same,Cmax,[7]; read-out: Cmax (maximum plasma concentration),450 ± 96.2 ng/mL
same,MRT last,[7]; read-out: MRTlast (mean residence time),8.09 ± 1.72 h
same,half-life,[7]; read-out: T1/2λz (elimination half-life) (converted),4.25 ± 0.3 h
same,T1/2λz,[8],7.39 ± 4.17 h
same,Oral LD50,Sprague Dawley (SD) rats,"> 5,000 mg/kg body weight (BW)"
same,T1/2λz,[9],5. 87 ± 3. 37 h
same,Skin irritation,rabbits,does not cause skin irritation
same,Crossing of the intestinal barrier,[10]; single oral dose 18 mg/kg BW,could cross the intestinal barrier
same,Time by which vitacoxib was detected in most tissues,[10]; single oral dose 18 mg/kg BW,≤ 15 min
same,Concentration in most tissues by 24 h after administration,"[10]; single oral dose 18 mg/kg BW, 24 h",below the limit of detection
same,Presence in brain / crossing of blood-brain barrier,"[10]; single oral dose 18 mg/kg BW, 18 mg/kg",found in the brain; also recorded: cross the blood-brain barrier
same,Order of AUC(0~24h) values in different tissues,[10]; single oral gavage dose 18 mg/kg bw,gastric contents > large intestinal contents > small intestinal contents > stomach > large intestine > pancreas > liver > small intestine > fat > lungs > spleen > brain > plasma > testes > kidneys > spinal cord > thymus > bones > heart > spermatic > skeletal muscles > bladder
same,Mutagenicity,rats and mice,No mutagenicity or teratogenicity
same,Teratogenicity,rats and mice,No mutagenicity or teratogenicity
same,Skin sensitization,guinea pigs,does not cause skin irritation in rabbits or skin sensitization
CS(=O)(=O)c1ccc(-n2cnc(Cl)c2-c2ccc(CO)cc2)nc1 [M1],Source (matrices in which the metabolite was detected),[1],"Plasma, bile, feces, and urine"
same,Share of the metabolite in urinary and fecal excretion,[1],minor amount of the dose
